Experimental data taken from PubChem BioAssay (NCI).
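Where inhibition never reached the appropriate level, the endpoint shown equals the highest concentration tested. Otherwise, values were interpolated linearly from a five-concentration, 48-hour dose response in 96-well plates. TGI: total growth inhibition.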

Tests used:
Assay in all cases: NCI tumour cell line growth inhibition, 48 h
[1] = test system: DLD-1 colon
[2] = test system: LXFL 529 NSCLC
[3] = test system: IGROV1 ovarian
[4] = test system: M14 melanoma
[5] = test system: HCT-15 colon
[6] = test system: K-562 leukemia
[7] = test system: SK-MEL-28 melanoma
[8] = test system: SN12C renal
[9] = test system: SF-539 CNS
[10] = test system: SK-OV-3 ovarian
[11] = test system: SF-268 CNS
[12] = test system: UACC-257 melanoma
[13] = test system: CAKI-1 renal
[14] = test system: KM12 colon
[15] = test system: SF-295 CNS
[16] = test system: NCI-H460 lung
[17] = test system: SW-620 colon
[18] = test system: M19-MEL melanoma
[19] = test system: HOP-62 NSCLC
[20] = test system: 786-0 renal
[21] = test system: A549 NSCLC
[22] = test system: NCI-H23 lung
[23] = test system: HOP-18 NSCLC
[24] = test system: U251 CNS
[25] = test system: OVCAR-5 ovarian
[26] = test system: SK-MEL-5 melanoma
[27] = test system: NCI-H522 lung
[28] = test system: HT29 colon
[29] = test system: COLO 205 colon
[30] = test system: OVCAR-8 ovarian
[31] = test system: UACC-62 melanoma
[32] = test system: DMS 273 small cell lung
[33] = test system: HOP-92 NSCLC
[34] = test system: OVCAR-4 ovarian
[35] = test system: HL-60(TB) leukemia
[36] = test system: RXF-631 renal
[37] = test system: MALME-3M melanoma
[38] = test system: SK-MEL-2 melanoma
[39] = test system: UO-31 renal
[40] = test system: A498 renal
[41] = test system: ACHN renal
[42] = test system: EKVX NSCLC
[43] = test system: NCI-H226 lung
[44] = test system: XF 498 CNS
[45] = test system: MOLT-4 leukemia
[46] = test system: RPMI-8226 leukemia
[47] = test system: TK-10 renal
[48] = test system: HCC-2998 colon
[49] = test system: SNB-75 CNS
[50] = test system: SNB-78 CNS
[51] = test system: KM20L2 colon
[52] = test system: LOX IMVI melanoma
[53] = test system: OVCAR-3 ovarian
[54] = test system: DMS 114 small cell lung
[55] = test system: CCRF-CEM leukemia
[56] = test system: SNB-19 CNS
[57] = test system: RXF 393 renal
[58] = test system: HCT-116 colon

COc1ccc(NC(=O)NS(=O)(=O)c2ccc(C)cc2)nn1
TGI [1]: > 100 µM
TGI [2]: > 100 µM
TGI [3]: > 100 µM
TGI [4]: > 100 µM
TGI [5]: > 100 µM
TGI [6]: > 100 µM
TGI [7]: > 100 µM
TGI [8]: > 100 µM
TGI [9]: > 100 µM
TGI [10]: > 100 µM
TGI [11]: > 100 µM
TGI [12]: > 100 µM
TGI [13]: > 100 µM
TGI [14]: > 100 µM
TGI [15]: > 100 µM
TGI [16]: > 100 µM
TGI [17]: > 100 µM
TGI [18]: > 100 µM
TGI [19]: > 100 µM
TGI [20]: > 100 µM
TGI [21]: > 100 µM
TGI [22]: > 100 µM
TGI [23]: > 100 µM
TGI [24]: > 100 µM
TGI [25]: > 100 µM
TGI [26]: > 100 µM
TGI [27]: > 100 µM
TGI [28]: > 100 µM
TGI [29]: > 100 µM
TGI [30]: > 100 µM
TGI [31]: > 100 µM
TGI [32]: > 100 µM
TGI [33]: > 100 µM
TGI [34]: > 100 µM
TGI [35]: > 100 µM
TGI [36]: > 100 µM
TGI [37]: > 100 µM
TGI [38]: > 100 µM
TGI [39]: > 100 µM
TGI [40]: > 100 µM
TGI [41]: > 100 µM
TGI [42]: > 100 µM
TGI [43]: > 100 µM
TGI [44]: > 100 µM
TGI [45]: > 100 µM
TGI [46]: > 100 µM
TGI [47]: > 100 µM
TGI [48]: > 100 µM
TGI [49]: > 100 µM
TGI [50]: > 100 µM
TGI [51]: > 100 µM
TGI [52]: > 100 µM
TGI [53]: > 100 µM
TGI [54]: > 100 µM
TGI [55]: > 100 µM
TGI [56]: > 100 µM

Nc1ccc(C(=O)N/C(=C\C=C\c2ccco2)c2nc3c4c(ccc3[nH]2)C(=O)c2ccccc2C4=O)cc1
TGI [1]: 58.3 µM
TGI [2]: > 100 µM
TGI [3]: > 100 µM
TGI [4]: > 100 µM
TGI [5]: > 100 µM
TGI [6]: > 100 µM
TGI [7]: > 100 µM
TGI [8]: > 100 µM
TGI [9]: > 100 µM
TGI [10]: 81.3 µM
TGI [11]: > 100 µM
TGI [12]: > 100 µM
TGI [13]: > 100 µM
TGI [14]: > 100 µM
TGI [15]: > 100 µM
TGI [17]: > 100 µM
TGI [18]: > 100 µM
TGI [19]: > 100 µM
TGI [20]: > 100 µM
TGI [21]: 97 µM
TGI [22]: > 100 µM
TGI [23]: > 100 µM
TGI [24]: > 100 µM
TGI [57]: 95 µM
TGI [25]: > 100 µM
TGI [26]: > 100 µM
TGI [27]: > 100 µM
TGI [28]: > 100 µM
TGI [29]: > 100 µM
TGI [30]: > 100 µM
TGI [31]: > 100 µM
TGI [32]: > 100 µM
TGI [33]: > 100 µM
TGI [34]: > 100 µM
TGI [36]: > 100 µM
TGI [37]: > 100 µM
TGI [38]: 78.6 µM
TGI [39]: 17.9 µM
TGI [40]: > 100 µM
TGI [58]: > 100 µM
TGI [41]: 82 µM
TGI [42]: > 100 µM
TGI [44]: > 100 µM
TGI [45]: 55.6 µM
TGI [46]: > 100 µM
TGI [47]: 82 µM
TGI [48]: > 100 µM
TGI [49]: 62.1 µM
TGI [50]: > 100 µM
TGI [51]: > 100 µM
TGI [52]: > 100 µM
TGI [53]: > 100 µM
TGI [54]: > 100 µM
TGI [55]: > 100 µM
TGI [56]: > 100 µM
